Results as given in US20260174786A1, “A NITROGEN-CONTAINING SPIROCYCLIC COMPOUND, PHARMACEUTICAL COMPOSITION AND USE THEREOF” (Prime Gene Therapeutics Co., Ltd., priority 2022, published 2026).

Key:
hTRPV3 = biological target: T1, hTRPV3 (Homo sapiens, UniProt Q8NET8); experiment: Whole cell patch clamp inhibition rate test on HEK-293 cells instantaneously expressing TRPV3; assay type: cell-based; conditions: HEK293
T1 construct: expressed in transfected cells; host or cells: HEK-293
T1 sequence (Q8NET8 1-790): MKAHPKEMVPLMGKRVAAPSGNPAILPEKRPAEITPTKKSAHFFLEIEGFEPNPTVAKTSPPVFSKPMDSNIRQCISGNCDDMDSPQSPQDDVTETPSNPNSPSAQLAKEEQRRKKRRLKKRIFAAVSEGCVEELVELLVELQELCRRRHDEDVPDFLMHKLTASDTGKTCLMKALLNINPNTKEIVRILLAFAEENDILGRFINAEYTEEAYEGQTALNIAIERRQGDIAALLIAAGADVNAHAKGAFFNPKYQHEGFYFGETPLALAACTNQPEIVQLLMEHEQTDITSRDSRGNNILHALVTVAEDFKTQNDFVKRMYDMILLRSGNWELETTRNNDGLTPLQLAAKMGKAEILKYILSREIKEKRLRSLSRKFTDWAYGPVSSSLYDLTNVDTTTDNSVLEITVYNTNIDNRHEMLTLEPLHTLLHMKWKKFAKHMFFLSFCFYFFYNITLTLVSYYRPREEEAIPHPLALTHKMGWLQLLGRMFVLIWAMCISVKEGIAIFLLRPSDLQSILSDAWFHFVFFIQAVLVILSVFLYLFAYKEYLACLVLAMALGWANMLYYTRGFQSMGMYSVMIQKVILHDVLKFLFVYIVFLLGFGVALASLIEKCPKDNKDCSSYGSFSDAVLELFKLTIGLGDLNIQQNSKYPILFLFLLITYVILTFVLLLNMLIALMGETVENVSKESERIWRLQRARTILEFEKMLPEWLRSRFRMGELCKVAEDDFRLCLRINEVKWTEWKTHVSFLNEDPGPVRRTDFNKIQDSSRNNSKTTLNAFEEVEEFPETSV
Outline: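 HEK-293 cells transiently transfected with TRPV3, recorded next-but-one day by whole-cell patch clamp at room temperature: holding −80 mV, ramp −100 to 100 mV over 100 ms every 5 s, peak current monitored. Ascending concentrations perfused, 5 min each; each cell its own control, at least two cells per concentration.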

[1] = Parallel artificial membrane permeability test (Lipid PAMPA); assay type: in vitro ADME; conditions: for recovery at 16 h, 10 μM: pH 7.4, test concentration 10 μM, read-out: rate of recovery %; for −LOG Pe / Papp at 16 h, 10 μM: test concentration 10 μM; for Papp at 16 h, 10 μM: pH 7.4, 16 hours, read-out: Effective penetration rate Pe
Procedure: 1. Preparing the test compound in 10 mM DMSO and diluting 1000 fold to 10 μM with PBS. 2. Ultrasonic treating lecithin in dodecane at a rate of 18 mg/ml. 3. Adding 300 μL/well of 10 μM test compound solution into the donor chamber (bottom) in triplicate. 4. Adding 5 μL/well lecithin/dodecane to the receptor chamber (top), and then adding 300 μL/well PBS (pH=7.4) to the receptor chamber within 10 minutes. 5. Transferring 50 μL of 10 μM test compound onto a sample plate containing 200 μL of cold methanol, with IS * being C0. 6. Inserting the receptor chamber into the donor chamber and incubating at 25° C. for 16 hours. 7. After 16 hours of incubation, transferring 50 μL from the receptor and donor compartments to a sample plate containing 200 μL of cold methanol and IS *. 8. Centrifuging the sample plate at 4° C. and 3220 g for 40 minutes. 9. Transferring 100 μL of supernatant to an analysis plate containing an appropriate volume of H2O for LC-MS/MS analysis. 10. Data analysis.

[2] = hTRPV3, single concentration 0.3 μM

SMILES	inhibition at 0.3 µM (hTRPV3; [2]) [%]	recovery at 16 h, 10 μM [1] [%]	−LOG Pe [1]	Papp at 16 h, 10 μM [1] [nm/s]	inhibition at 0.3 µM (hTRPV3; hTRPV3, 0.3 μM) [%]
O=C(c1ccc(F)cn1)N1CCC2(CC(O)c3cc(-c4ccccc4C4CC4)ccc32)C1 (stereo not drawn) [Example 15, (5-(2-cyclopropylphenyl)-3-hydroxy-2,3-dihydrospiro[indene-1,3′-pyrrolidine]-1′-yl)(5-fluoropyridin-2-yl) ketone]	70 to 100	16.9	4.85	141	
O=C(c1ccc(F)cn1)N1CC[C@@]2(C[C@@H](O)c3cc(-c4ccccc4C4CC4)ccc32)C1 [Example 21, ((1S,3R)-5-(2-cyclopropylphenyl)-3-hydroxy-2,3-dihydrospiro[indene-1,3′-pyrrolidine]-1′-yl)(5-fluoropyridin-2-yl)ketone]	70 to 100	18.8	4.79	163	89.6
